# Experimental data from patent publication US20210253557A1, “SUBSTITUTED TRIAZOLE DERIVATIVES AND USES THEREOF” (Bayer Pharma Aktiengesellschaft, priority 2017, published 2021).
# What was measured:
# human V1a receptor = target: T1, human V1a receptor (Homo sapiens, UniProt P37288); test: Cellular in vitro assay for determining vasopressin receptor activity (V1a, aequorin luminescence); type: cell-based; conditions: for IC50: CHO cell line transfected with the human V1a receptor, [Arg8]-vasopressin at EC50 concentration, read-out: IC50 hV1a; for ratio IC50 hV2/hV1a: selectivity ratio of IC50 hV2 to IC50 hV1a
# T1 construct: expressed in transfected cells; host or cells: CHO K1 (ATCC), also stably transfected with a modified aequorin
# human V2 receptor = target: T2, human V2 receptor (Homo sapiens, UniProt P30518); test: Cellular in vitro assay for determining vasopressin receptor activity (V2, CRE-luciferase); type: cell-based; conditions: CHO cell line transfected with the human V2 receptor; [Arg8]-vasopressin at EC50 concentration; read-out: IC50 hV2
# T2 construct: expressed in transfected cells; host or cells: CHO K1 (ATCC) expressing firefly luciferase under a CRE-responsive promoter
# Method in brief: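 CHO K1 cells stably expressing the human V2 receptor and a CRE-driven firefly luciferase were plated the day before in DMEM/F12 with 2% FCS. Test compounds were added together with [Arg8]-vasopressin at its EC50 and incubated 3 h at 37 °C. Luciferase luminescence was read after Triton lysis and luciferin addition, giving IC50 values.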
# T1 sequence (P37288 whole entry): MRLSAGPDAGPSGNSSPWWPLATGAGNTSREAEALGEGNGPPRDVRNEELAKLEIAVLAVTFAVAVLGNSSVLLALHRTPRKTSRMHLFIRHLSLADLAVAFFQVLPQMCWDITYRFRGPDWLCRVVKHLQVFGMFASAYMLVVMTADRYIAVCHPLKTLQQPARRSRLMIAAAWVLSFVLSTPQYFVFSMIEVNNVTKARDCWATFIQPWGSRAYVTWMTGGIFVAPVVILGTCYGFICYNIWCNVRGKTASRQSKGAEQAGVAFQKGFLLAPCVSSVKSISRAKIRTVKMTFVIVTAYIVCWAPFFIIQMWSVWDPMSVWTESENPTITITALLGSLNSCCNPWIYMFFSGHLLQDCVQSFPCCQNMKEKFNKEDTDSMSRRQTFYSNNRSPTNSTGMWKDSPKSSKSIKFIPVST
# T2 sequence (P30518 whole entry): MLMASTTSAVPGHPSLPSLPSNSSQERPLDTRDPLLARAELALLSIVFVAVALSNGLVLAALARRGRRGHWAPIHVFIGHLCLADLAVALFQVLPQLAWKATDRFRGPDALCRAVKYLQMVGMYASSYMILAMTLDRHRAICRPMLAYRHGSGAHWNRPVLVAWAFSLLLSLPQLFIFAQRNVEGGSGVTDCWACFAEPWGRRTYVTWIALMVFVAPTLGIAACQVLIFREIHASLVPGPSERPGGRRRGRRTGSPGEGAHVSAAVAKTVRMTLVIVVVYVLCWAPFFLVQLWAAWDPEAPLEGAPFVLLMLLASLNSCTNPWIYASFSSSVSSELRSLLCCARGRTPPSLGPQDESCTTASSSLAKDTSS
IC50 (human V1a receptor),ratio IC50 hV2/hV1a (human V1a receptor),IC50 (human V2 receptor),SMILES
3.6 nM,7.4,26.7 nM,"C[C@H](OC(N)=O)c1nc(Cn2nc(-c3ccc(Cl)cc3)n(C[C@H](O)C(F)(F)F)c2=O)nn1-c1ccccc1OC(F)(F)F [Example 7, (1S)-1-{3-({3-(4-Chlorophenyl)-5-oxo-4-[(2S)-3,3,3-trifluoro-2-hydroxypropyl]-4,5-dihydro-1H-1,2,4-triazol-1-yl}methyl)-1-[2-(trifluoromethoxy)phenyl]-1H-1,2,4-triazol-5-yl}ethyl Carbamate]"
0.85 nM,190.5,161 nM,"C[C@@H](OC(N)=O)c1nc(Cn2nc(-c3ccc(Cl)cc3)n(C[C@H](O)C(F)(F)F)c2=O)nn1-c1ccccc1OC(F)(F)F [Example 8, (1R)-1-{3-({3-(4-Chlorophenyl)-5-oxo-4-[(2S)-3,3,3-trifluoro-2-hydroxypropyl]-4,5-dihydro-1H-1,2,4-triazol-1-yl}methyl)-1-[2-(trifluoromethoxy)phenyl]-1H-1,2,4-triazol-5-yl}ethyl Carbamate]"
35.5 nM,3.6,127 nM,"C[C@H](OC(N)=O)c1nc(Cn2nc(-c3ccc(Cl)cc3)n(C[C@H](O)C(F)(F)F)c2=O)nn1-c1ncccc1F [Example 12, (1S)-1-[3-({3-(4-Chlorophenyl)-5-oxo-4-[(2S)-3,3,3-trifluoro-2-hydroxypropyl]-4,5-dihydro-1H-1,2,4-triazol-1-yl}methyl)-1-(3-fluoropyridin-2-yl)-1H-1,2,4-triazol-5-yl]ethyl Carbamate]"
160 nM,0.3,52.5 nM,"C[C@H](OC(N)=O)c1nc(Cn2nc(-c3ccc(Cl)cc3)n(C[C@H](O)C(F)(F)F)c2=O)nn1-c1ccc(Cl)cn1 [Example 16, (1S)-1-[3-({3-(4-Chlorophenyl)-5-oxo-4-[(2S)-3,3,3-trifluoro-2-hydroxypropyl]-4,5-dihydro-1H-1,2,4-triazol-1-yl}methyl)-1-(5-chloropyridin-2-yl)-1H-1,2,4-triazol-5-yl]ethyl Carbamate]"
1.55 nM,40.7,63 nM,"C[C@H](OC(N)=O)c1nc(Cn2nc(-c3ccc(Cl)cc3)n(C[C@H](O)C(F)(F)F)c2=O)nn1-c1c(Cl)cncc1Cl [Example 19, (1S)-1-[3-({3-(4-Chlorophenyl)-5-oxo-4-[(2S)-3,3,3-trifluoro-2-hydroxypropyl]-4,5-dihydro-1H-1,2,4-triazol-1-yl}methyl)-1-(3,5-dichloropyridin-4-yl)-1H-1,2,4-triazol-5-yl]ethyl Carbamate]"

# Further lines, the compound ahead of its results:
SMILES,IC50 (human V1a receptor),ratio IC50 hV2/hV1a (human V1a receptor),IC50 (human V2 receptor)
"C[C@@H](OC(N)=O)c1nc(Cn2nc(-c3ccc(Cl)cc3)n(C[C@H](O)C(F)(F)F)c2=O)nn1-c1ccccc1OC(F)F [Example 6, (1R)-1-{3-({3-(4-Chlorophenyl)-5-oxo-4-[(2S)-3,3,3-trifluoro-2-hydroxypropyl]-4,5-dihydro-1H-1,2,4-triazol-1-yl}methyl)-1-[2-(difluoromethoxy)phenyl]-1H-1,2,4-triazol-5-yl}ethyl Carbamate]",0.81 nM,25.6,20.7 nM
"C[C@H](OC(N)=O)c1nc(Cn2nc(-c3ccc(Cl)cc3)n(C[C@H](O)C(F)(F)F)c2=O)nn1-c1ccccc1S(N)(=O)=O [Example 9, (1S)-1-[3-({3-(4-Chlorophenyl)-5-oxo-4-[(2S)-3,3,3-trifluoro-2-hydroxypropyl]-4,5-dihydro-1H-1,2,4-triazol-1-yl}methyl)-1-(2-sulfamoylphenyl)-1H-1,2,4-triazol-5-yl]ethyl Carbamate]",31.5 nM,4.3,135 nM
"C[C@H](OC(N)=O)c1nc(Cn2nc(-c3ccc(Cl)cc3)n(C[C@H](O)C(F)(F)F)c2=O)nn1-c1ccccn1 [Example 10, (1S)-1-[3-({3-(4-Chlorophenyl)-5-oxo-4-[(2S)-3,3,3-trifluoro-2-hydroxypropyl]-4,5-dihydro-1H-1,2,4-triazol-1-yl}methyl)-1-(pyridin-2-yl)-1H-1,2,4-triazol-5-yl]ethyl Carbamate]",52.5 nM,2.0,105 nM
"C[C@@H](OC(N)=O)c1nc(Cn2nc(-c3ccc(Cl)cc3)n(C[C@H](O)C(F)(F)F)c2=O)nn1-c1ccccn1 [Example 11, (1R)-1-[3-({3-(4-Chlorophenyl)-5-oxo-4-[(2S)-3,3,3-trifluoro-2-hydroxypropyl]-4,5-dihydro-1H-1,2,4-triazol-1-yl}methyl)-1-(pyridin-2-yl)-1H-1,2,4-triazol-5-yl]ethyl Carbamate]",115 nM,2.0,225 nM
"C[C@@H](OC(N)=O)c1nc(Cn2nc(-c3ccc(Cl)cc3)n(C[C@H](O)C(F)(F)F)c2=O)nn1-c1ncccc1F [Example 13, (1R)-1-[3-({3-(4-Chlorophenyl)-5-oxo-4-[(2S)-3,3,3-trifluoro-2-hydroxypropyl]-4,5-dihydro-1H-1,2,4-triazol-1-yl}methyl)-1-(3-fluoropyridin-2-yl)-1H-1,2,4-triazol-5-yl]ethyl Carbamate]",13.5 nM,2.6,35 nM
"C[C@H](OC(N)=O)c1nc(Cn2nc(-c3ccc(Cl)cc3)n(C[C@H](O)C(F)(F)F)c2=O)nn1-c1ncccc1Cl [Example 14, (1S)-1-[3-({3-(4-Chlorophenyl)-5-oxo-4-[(2S)-3,3,3-trifluoro-2-hydroxypropyl]-4,5-dihydro-1H-1,2,4-triazol-1-yl}methyl)-1-(3-chloropyridin-2-yl)-1H-1,2,4-triazol-5-yl]ethyl Carbamate]",1.75 nM,29.7,52 nM
"C[C@@H](OC(N)=O)c1nc(Cn2nc(-c3ccc(Cl)cc3)n(C[C@H](O)C(F)(F)F)c2=O)nn1-c1ncccc1Cl [Example 15, (1R)-1-[3-({3-(4-Chlorophenyl)-5-oxo-4-[(2S)-3,3,3-trifluoro-2-hydroxypropyl]-4,5-dihydro-1H-1,2,4-triazol-1-yl}methyl)-1-(3-chloropyridin-2-yl)-1H-1,2,4-triazol-5-yl]ethyl Carbamate]",1.02 nM,34.8,35.5 nM
"C[C@@H](OC(N)=O)c1nc(Cn2nc(-c3ccc(Cl)cc3)n(C[C@H](O)C(F)(F)F)c2=O)nn1-c1ccc(Cl)cn1 [Example 17, (1R)-1-[3-({3-(4-Chlorophenyl)-5-oxo-4-[(2S)-3,3,3-trifluoro-2-hydroxypropyl]-4,5-dihydro-1H-1,2,4-triazol-1-yl}methyl)-1-(5-chloropyridin-2-yl)-1H-1,2,4-triazol-5-yl]ethyl Carbamate]",557 nM,0.3,150 nM
"C[C@H](OC(N)=O)c1nc(Cn2nc(-c3ccc(Cl)cc3)n(C[C@H](O)C(F)(F)F)c2=O)nn1-c1ccncc1Cl [Example 18, (1S)-1-[3-({3-(4-Chlorophenyl)-5-oxo-4-[(2S)-3,3,3-trifluoro-2-hydroxypropyl]-4,5-dihydro-1H-1,2,4-triazol-1-yl}methyl)-1-(3-chloropyridin-4-yl)-1H-1,2,4-triazol-5-yl]ethyl Carbamate]",7.7 nM,3.9,30 nM
